Legend:
Test in all cases: Example B1 herbicidal action, post-emergence, 96-cell seed trays, climatic chamber
Assay type in all cases: in vivo
Solanum nigrum (SOLNI) = details: Application post-emergence, 1000 mg/l spray equivalent to 1000 g/ha, evaluated after 9 days (100=total damage to plant, 0=no damage to plant)
Method: (§1) Seeds of a variety of test species were sown in sterilised standard soil in seed trays each having 96 cells. After cultivation for 8 to 9 days cultivation (post-emergence) under controlled conditions in a climatic chamber (cultivation at 23/17° C., day/night; 13 hours light; 50-60% humidity), the plants were treated with an aqueous spray solution of 1000 mg/l of the active ingredient dissolved in 10% DMSO (dimethyl sulfoxide, CAS RN 67-68-5) as a solvent, equivalent to 1000 g/ha. The plants were grown in the climatic chamber after application at (24/19° C., day/night; 13 hours light; 50-60% humidity) and watered twice daily. After 9 days until the test was evaluated (100=total damage to plant, 0=no damage to plant)

Stellaria media (STEME) = details: Application post-emergence, 1000 mg/l spray equivalent to 1000 g/ha, evaluated after 9 days (100=total damage to plant, 0=no damage to plant)
Method: as §1

[1] = test system: Amaranthus retroflexus (AMARE); details: Application post-emergence, 1000 mg/l spray equivalent to 1000 g/ha, evaluated after 9 days
Method: as §1

[2] = test system: Nasturtium officinale (NAAOF); design: scale not given here; details: Application post-emergence, 1000 mg/l spray equivalent to 1000 g/ha, evaluated after 9 days (100=total damage to plant, 0=no damage to plant)
Method: as §1

SMILES | damage to plant, Solanum nigrum (SOLNI) (Solanum nigrum (SOLNI)) | damage to plant, Stellaria media (STEME) (Stellaria media (STEME)) | damage to plant, Amaranthus retroflexus (AMARE) [1] | damage to plant, Nasturtium officinale (NAAOF) [2]
CCC(=O)Oc1c(-c2ccc(F)cc2Cl)c(=O)n(C)c2nccnc12 [Compound C44] | 2 | 6 | 8 | 4
CC(=O)Oc1c(-c2c(C)cc(C)cc2C)c(=O)[nH]c2nccnc12 [Compound B33] | 0 | 3 | 5 | 5
CCC(=O)Oc1c(-c2ccccc2OC(F)(F)F)c(=O)n(C)c2nccnc12 [Compound C28] | 2 | 7 | 2 | 7
CCCC(C)C(=O)Oc1c(-c2c(F)ccc(F)c2Cl)c(=O)n(C)c2nccnc12 (centres unmarked) [Compound C95] | 5 | 7 | 6 | 7
CCn1c(=O)c(-c2ccc(Cl)cc2Cl)c(OC(C)=O)c2nccnc21 [Compound C6] | 5 | 9 | 8 | 8
Cn1c(=O)c(-c2ccc(Cl)cc2Cl)c(OC(=O)C(C)(C)C)c2nccnc21 [Compound C61] | 2 | 8 | 8 | 8
CC(C)n1c(=O)c(-c2c(F)ccc(F)c2Cl)c(OC(=O)C(C)(C)C)c2nccnc21 [Compound C19] | 3 | 6 | 0 | 4
CCC(C(=O)Oc1c(-c2c(F)ccc(F)c2Cl)c(=O)n(C)c2nccnc12)c1ccccc1 (centres unmarked) [Compound C94] | 4 | 6 | 5 | 7
CC(C)n1c(=O)c(-c2ccccc2OC(F)(F)F)c(OC(=O)C(C)(C)C)c2nccnc21 [Compound C23] | 4 | 0 | 0 | 0
Cn1c(=O)c(-c2c(F)ccc(F)c2Cl)c(OC(=O)c2ccco2)c2nccnc21 [Compound C86] | 7 | 6 | 7 | 6
COCCn1c(=O)c(-c2c(F)ccc(F)c2Cl)c(OC(=O)C(C)C)c2nccnc21 [Compound C15] | 1 | 5 | 0 | 6
CC(=O)Oc1c(-c2c(Cl)cccc2Cl)c(=O)n(C)c2nccnc12 [Compound C33] | 6 | 6 | 3 | 7
CCCC(CCC)C(=O)Oc1c(-c2c(F)ccc(F)c2Cl)c(=O)n(C)c2nccnc12 [Compound C96] | 3 | 6 | 5 | 3
Cn1c(=O)c(-c2ccc3ccccc3c2)c(OC(=O)C(C)(C)C)c2nccnc21 [Compound C52] | 0 | 3 | 0 | 3
